The source made the active and inactive calls. No cut-off for these calls is given here.
Columns and labels:
A549 [1] = assay: Antiproliferative activity against human A549 cells assessed as inhibition of cell growth incubated for 48 hrs by MTT assay; format: functional, cell-based; conditions: A549, 48 h
[2] = Antiproliferative activity against human LTEP-a2 cells assessed as inhibition of cell growth incubated for 48 hrs by MTT assay; format: functional, cell-based; conditions: LTEP-A2, 48 h
NCI-H1975 = assay: Antiproliferative activity against human NCI-H1975 cells assessed as inhibition of cell growth incubated for 48 hrs by MTT assay; format: functional, cell-based; conditions: NCI-H1975, 48 h
MDA-MB-231 = assay: Antiproliferative activity against human MDA-MB-231 cells assessed as inhibition of cell growth incubated for 48 hrs by MTT assay; format: functional, cell-based; conditions: MDA-MB-231, 48 h
A549 [3] = assay: Induction of intracellular ROS generation in human A549 cells at 2 to 4 uM incubated for 6 hrs by DCFH-DA staining based flow cytometry analysis; format: functional, cell-based; conditions: dose 2-4 µM
A549 [4] = assay: Induction of intracellular ROS generation in human A549 cells at 2 to 4 uM by DCFH-DA staining based flow cytometry analysis; format: functional, cell-based; conditions: dose 2-4 µM, time 6.0 hrs, TDE = time-dependent effect
A549 [5] = assay: Inhibition of cell migration in human A549 cells at 2 to 4 uM incubated for 24 hrs by inverted microscopic analysis; format: functional, cell-based; conditions: dose 2-4 µM
A549 [6] = assay: Inhibition of cell invasion in human A549 cells at 2 to 4 uM by crystal violet staining based microscopic analysis; format: functional; conditions: dose 2-4 µM, time 12-48 hrs, TDE = time-dependent effect
A549 [7] = assay: Inhibition of cell invasion in human A549 cells incubated for 12 to 48 hrs by crystal violet staining based microscopic analysis; format: functional; conditions: dose 2-4 µM, time 12-48 hrs
A549 [8] = assay: Induction of apoptosis in human A549 cells assessed as viable cells at 2 uM incubated for 48 hrs by Annexin V-FITC and PI staining based flow cytometric analysis (reference value: 93.8%); format: functional; conditions: read-out: Activity
A549 [9] = assay: Induction of apoptosis in human A549 cells assessed as early apoptotic cells at 2 uM incubated for 48 hrs by Annexin V-FITC and PI staining based flow cytometric analysis (reference value: 0.76%); format: functional
A549 [10] = assay: Induction of apoptosis in human A549 cells assessed as late apoptotic cells at 2 uM incubated for 48 hrs by Annexin V-FITC and PI staining based flow cytometric analysis (reference value: 0.73%); format: functional
A549 [11] = assay: Induction of apoptosis in human A549 cells assessed as viable cells at 4 uM incubated for 48 hrs by Annexin V-FITC and PI staining based flow cytometric analysis (reference value: 93.8%); format: functional; conditions: read-out: Activity
A549 [12] = assay: Induction of apoptosis in human A549 cells assessed as early apoptotic cells at 4 uM incubated for 48 hrs by Annexin V-FITC and PI staining based flow cytometric analysis (reference value: 0.76%); format: functional
A549 [13] = assay: Induction of apoptosis in human A549 cells assessed as necrotic cells at 4 uM incubated for 48 hrs by Annexin V-FITC and PI staining based flow cytometric analysis (reference value: 4.68%); format: functional
A549 [14] = assay: Downregulation of PRDX1 gene expression in human A549 cells at 2 to 4 uM by Q-PCR analysis; format: functional, cell-based; conditions: dose 2-4 µM
A549 [15] = assay: Downregulation of PRDX1 level in human A549 cells at 2 to 4 uM by Western blot analysis; format: functional, cell-based; conditions: dose 2-4 µM
A549 [16] = assay: Downregulation of PRDX4 level in human A549 cells at 2 to 4 uM by Western blot analysis; format: functional, cell-based; conditions: dose 2-4 µM
A549 [17] = assay: Downregulation of PRDX5 level in human A549 cells at 2 to 4 uM by Western blot analysis; format: functional, cell-based; conditions: dose 2-4 µM
A549 [18] = assay: Downregulation of PRDX6 level in human A549 cells at 2 to 4 uM by Western blot analysis; format: functional, cell-based; conditions: dose 2-4 µM
A549 [19] = assay: Induction of cell cycle arrest in human A549 cells assessed as decrease in CDK2 level at 2 to 4 uM by Western blot analysis; format: functional, cell-based; conditions: dose 2-4 µM
A549 [20] = assay: Induction of cell cycle arrest in human A549 cells assessed as decrease in CDK4 level at 2 to 4 uM by Western blot analysis; format: functional, cell-based; conditions: dose 2-4 µM
A549 [21] = assay: Induction of apoptosis in human A549 cells assessed as increase in cleaved caspase-3 expression at 2 to 4 uM by Western blot analysis; format: functional, cell-based; conditions: dose 2-4 µM
A549 [22] = assay: Induction of apoptosis in human A549 cells assessed as increase in cleaved caspase-8 expression at 2 to 4 uM by Western blot analysis; format: functional, cell-based; conditions: dose 2-4 µM
A549 [23] = assay: Induction of apoptosis in human A549 cells assessed as decrease in PARP level at 2 to 4 uM by Western blot analysis; format: functional, cell-based; conditions: dose 2-4 µM
A549 [24] = assay: Induction of apoptosis in human A549 cells assessed as decrease in PCNA level at 2 to 4 uM by Western blot analysis; format: functional, cell-based; conditions: dose 2-4 µM
[25] = target: RAF proto-oncogene serine/threonine-protein kinase (Homo sapiens) (UniProt P04049); assay: Inhibition of C-RAF phosphorylation in human A549 cells at 2 to 4 uM by Western blot analysis; format: cell-based; conditions: dose 2-4 µM
RAF proto-oncogene serine/threonine-protein kinase (Homo sapiens), sequence (P04049 whole entry): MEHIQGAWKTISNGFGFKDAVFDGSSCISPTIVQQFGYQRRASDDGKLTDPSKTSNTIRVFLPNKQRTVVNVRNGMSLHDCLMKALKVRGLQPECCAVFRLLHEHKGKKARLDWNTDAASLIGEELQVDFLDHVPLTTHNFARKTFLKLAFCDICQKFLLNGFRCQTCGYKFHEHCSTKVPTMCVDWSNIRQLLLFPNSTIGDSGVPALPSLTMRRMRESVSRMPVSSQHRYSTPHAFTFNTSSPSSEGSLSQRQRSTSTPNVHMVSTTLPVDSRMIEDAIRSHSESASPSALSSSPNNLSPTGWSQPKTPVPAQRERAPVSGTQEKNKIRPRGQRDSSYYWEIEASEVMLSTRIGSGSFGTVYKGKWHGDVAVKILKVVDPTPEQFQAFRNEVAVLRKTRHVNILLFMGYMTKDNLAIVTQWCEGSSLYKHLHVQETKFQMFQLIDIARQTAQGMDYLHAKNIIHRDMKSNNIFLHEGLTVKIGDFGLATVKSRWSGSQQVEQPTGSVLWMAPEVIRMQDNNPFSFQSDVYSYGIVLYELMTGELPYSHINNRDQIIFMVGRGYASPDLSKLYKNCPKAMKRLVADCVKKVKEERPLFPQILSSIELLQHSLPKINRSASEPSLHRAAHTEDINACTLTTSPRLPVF

A549 [26] = assay: Inhibition of PI3K phosphorylation in human A549 cells at 2 to 4 uM by Western blot analysis; format: cell-based; conditions: dose 2-4 µM
A549 [27] = assay: Inhibition of AKT phosphorylation in human A549 cells at 2 to 4 uM by Western blot analysis; format: cell-based; conditions: dose 2-4 µM
A549 [28] = assay: Inhibition of ERK phosphorylation in human A549 cells at 2 to 4 uM by Western blot analysis; format: cell-based; conditions: dose 2-4 µM
[29] = Antitumor activity against mouse Lewis lung carcinoma cell line implanted in C57BL/6J mouse assessed as tumor growth inhibition at 1 mg/kg, ip administered every day for 19 days; format: functional; conditions: 456 h, time 19 day, read-out: TGI
[30] = Antitumor activity against mouse Lewis lung carcinoma cell line implanted in C57BL/6J mouse assessed as tumor growth inhibition at 0.5 mg/kg, ip administered every day for 19 days; format: functional; conditions: 456 h, time 19 day, read-out: TGI
Lewis lung carcinoma [31] = assay: Antitumor activity against mouse Lewis lung carcinoma cell line implanted in C57BL/6J mouse assessed as tumor cell agglutination at 0.5 to 1 mg/kg, ip administered every day for 19 days by H and E staining based analysis; format: functional, organism-based; conditions: dose 0.5-1 mg/kg, time 19.0 day
Lewis lung carcinoma [32] = assay: Antitumor activity against mouse Lewis lung carcinoma cell line implanted in C57BL/6J mouse assessed as tumor cell contraction at 0.5 to 1 mg/kg, ip administered every day for 19 days by H and E staining based analysis; format: functional, organism-based; conditions: dose 0.5-1 mg/kg, time 19.0 day
Lewis lung carcinoma [33] = assay: Antitumor activity against mouse Lewis lung carcinoma cell line implanted in C57BL/6J mouse assessed as nuclear chromatin marginalization at 0.5 to 1 mg/kg, ip administered every day for 19 days by H and E staining based analysis; format: functional, organism-based; conditions: dose 0.5-1 mg/kg, time 19.0 day
Lewis lung carcinoma [34] = assay: Antitumor activity against mouse Lewis lung carcinoma cell line implanted in C57BL/6J mouse assessed as reduction in tumor cell proliferation by measuring reduction in Ki67 expression at 0.5 to 1 mg/kg, ip administered every day for 19 days; format: functional, organism-based; conditions: dose 0.5-1 mg/kg, time 19.0 day
[35] = Toxicity in C57BL/6J mouse implanted with mouse Lewis lung carcinoma cell line assessed as liver damage at 0.5 to 1 mg/kg, ip administered every day for 19 days; format: organism-based; conditions: in vivo, 456 h, dose 0.5-1 mg/kg, time 19 day
[36] = Toxicity in C57BL/6J mouse implanted with mouse Lewis lung carcinoma cell line assessed as kidney damage at 0.5 to 1 mg/kg, ip administered every day for 19 days; format: organism-based; conditions: in vivo, 456 h, dose 0.5-1 mg/kg, time 19 day

CC1=C(OC(=O)/C=C/c2ccccc2)C(=O)C=C2C1=CC=C1[C@@]2(C)CC[C@@]2(C)[C@@H]3C[C@](C)(C(=O)NCc4nc(C)c(C)nc4C)CC[C@]3(C)CC[C@]12C
IC50 (A549 [1]): 1920 nM | IC50 [2]: 2930 nM | IC50 (NCI-H1975): 1990 nM | IC50 (MDA-MB-231): 2670 nM | Activity (A549 [3]): Active | Activity (A549 [4]): Tde | inhibition (A549 [5]): Active | inhibition (A549 [6]): Tde | inhibition (A549 [7]): Dose-Dependent Effect | viability at 2 µM (A549 [8]): 88.4% | Activity (A549 [9]): 3.13% | Activity (A549 [10]): 4.91% | viability at 4 µM (A549 [11]): 45.1% | Activity (A549 [12]): 18.5% | Activity (A549 [13]): 3.04% | Activity (A549 [14]): Active | Activity (A549 [15]): Active | Activity (A549 [16]): Active | Activity (A549 [17]): Active | Activity (A549 [18]): Active | Activity (A549 [19]): Active | Activity (A549 [20]): Active | Activity (A549 [21]): Active | Activity (A549 [22]): Active | Activity (A549 [23]): Active | Activity (A549 [24]): Active | inhibition [25]: Active | inhibition (A549 [26]): Active | inhibition (A549 [27]): Active | inhibition (A549 [28]): Active | inhibition in vivo at 1 mg/kg [29]: 77.4% | inhibition in vivo at 0.5 mg/kg [30]: 69.9% | Activity (Lewis lung carcinoma [31]): Active | Activity (Lewis lung carcinoma [32]): Active | Activity (Lewis lung carcinoma [33]): Active | Activity (Lewis lung carcinoma [34]): Active | Activity [35]: Non-Toxic | Activity [36]: Non-Toxic
